For one data set, the target named is T1, hP2X3 receptor (Homo sapiens, UniProt P56373).
T1 construct: expressed in transfected cells
T1 sequence (P56373 1-397): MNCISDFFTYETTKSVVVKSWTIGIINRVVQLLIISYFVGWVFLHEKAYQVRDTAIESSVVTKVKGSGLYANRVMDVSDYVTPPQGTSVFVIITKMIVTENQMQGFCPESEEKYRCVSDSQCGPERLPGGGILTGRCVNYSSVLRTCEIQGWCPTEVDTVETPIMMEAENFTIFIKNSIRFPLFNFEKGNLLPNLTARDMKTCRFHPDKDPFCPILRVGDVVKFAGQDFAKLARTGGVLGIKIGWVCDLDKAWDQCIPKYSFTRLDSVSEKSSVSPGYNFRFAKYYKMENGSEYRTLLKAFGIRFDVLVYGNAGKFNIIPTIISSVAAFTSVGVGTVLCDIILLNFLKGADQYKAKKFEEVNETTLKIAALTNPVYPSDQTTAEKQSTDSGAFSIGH
The data set is described as follows: Antagonistic activity against hP2X3 receptor by FLIPR calcium flow assay. It is filed as cell-based. As to conditions: for IC50: human cells stably transfected with hP2X3, agonist α,β-meATP 400 nM; for antagonistic activity against hP2X3 receptor compared with Reference compound 1 (in words): vs Reference compound 1. As to the method:
The antagonistic activity of hP2X3 antagonists against hP2X3 receptor was evaluated by means of FLIPR Calcium 4 Assay Kit (Molecular Devices, R8141) and FLIPR TETRA instrument (Molecular Devices, 0296) by detecting calcium flow signals. 24h before the experiment, human cells, which had been stably transfected with hP2X3 receptors, were plated on a 384-well plate at 2×10^5 cells/mL, with 50 μL of cell suspension per well, and the plate was cultured in an incubator (37° C., 5% CO2) for 16 h to 24 h. The test compound solution (20 to 50 mM DMSO stock solution) with a concentration of 180 times the required concentration was prepared using DMSO. The stock solution was added to the 384-well plate at 500 nL per well, supplemented with 30 μL of FLIPR Assay buffer (1×HBSS+2 mM CaCl2 20 mM HEPES containing 1.26 mM Ca^2+). The 384-well plate was shaken for 20 to 40 min to mix evenly. An agonist (α, β-meATP) with a concentration of 3 times the required concentration (required final concentration was 400 nM) was prepared with FLIPR Assay buffer, and was added to another 384-well plate at 45 μL per well. The culture plate, on which the cells were plated one day ago, was taken, the cell supernatant was sucked and discarded, each well was added with 30 μL of Dye (FLIPR® Calcium 4 Assay Kit, diluted with FLIPR buffer), and then the plate was incubated for 1h. 15 μL of compound was added to each well of cells (using FLIPR sample injector). After 15 minutes, 22.5 μL of the agonist was added to each well, and the fluorescence signal (exciting light wavelength ranging from 470 nm to 495 nm, and emission wavelength ranging from 515 nm to 575 nm) was detect. […] An inhibition effect curve of the compound was fitted on the software GraphpadPrism6, and the IC50 value was calculated.

A further data set concerns rat taste. The data set is described as follows: Taste test in rat (water vs 0.3 mM aqueous quinine solution intake). The class given is in vivo, SD rats. Particulars: SD rats, 30 mg/kg i.p, 0.3 mM quinine, 15 min supply half an hour after administration. The procedure:
SD rats were administered with the corresponding compound after 3 days of overnight water prohibition training. Each rat was supplied with 1 bottle of water and 1 bottle of 0.3 mM aqueous quinine solution half an hour after the administration. After 15 min of water supply, the bottles were removed. The intake amount of water and the intake amount of the 0.3 mM aqueous quinine solution were measured, respectively. The taste influence of the compound on SD rats was evaluated based on the difference between the intake amount of water and the intake amount of the aqueous quinine solution.

The nature of data set [1]: Pharmacokinetic assay in mouse. It is filed as in vivo, ICR mice. As to the method:
For a mouse pharmacokinetic assay, male ICR mice (20 g to 25 g) were selected and fasted overnight. Three mice were intragastrically administered with 10 mg/kg of the corresponding compound. The blood of the mice was collected before the administration and at 15 min, 30 min, 1 h, 2 h, 4 h, 8 h, and 24 h after the administration. The blood samples were centrifuged at 4° C. for 6 minutes at 6,800 g, plasma was collected and stored at −80° C.
The supernatant was mixed with 3 times the amount of water, and an appropriate amount of the mixed solution was taken for LC-MS/MS analysis. The primary pharmacokinetic parameters were analyzed by WinNonlin 7.0 software non-atrioventricular model.

Data set [2] has as its system histamine/citric acid-stimulated cough in guinea pig. The data set is described as follows: Efficacy test for histamine/citric acid-stimulated cough in guinea pig. The class given is in vivo. As to conditions: guinea pigs, nasal drops, 0.17 mg/kg to 1.5 mg/kg, histamine/citric acid stimulation. As to the method:
Guinea pigs were adaptively fed for 3 days to 7 days before being grouped. When the body weight of the guinea pigs reached 300 g to 400 g, they were numbered and randomly grouped.
Compounds or an excipient were administered to guinea pigs by nasal drops 0.25 hour to 24 hours before the start of the cough assessment. The administration dose of the test sample ranged from 0.17 mg/kg to 1.5 mg/kg. For the cough assessment, the guinea pigs were placed in a whole-body volume scan box for adaptation, and then, they were provided with histamine nebulization and then citric acid nebulization. […]
The experimental data was statistically analyzed by one-way ANOVA to analyze and compare data of the various groups. The statistical analysis result p<0.05 was regarded as a significant difference. The t-test was employed for difference comparison between any two.

The mark [3] stands for this setting: mouse, plasma, po, male ICR mice, intragastric administration, 10 mg/kg.

Broadly, the IC50 is the midpoint of a concentration-inhibition curve. The AUC(0-t) is the area under the concentration-time curve up to a stated or last time point. Low readings indicate less exposure, high ones more exposure. The Cmax is the maximum level reached in the sampled fluid or tissue. As a reminder, the Tmax is the time at which the peak concentration occurs.

Counter-ions that a name gives are not always drawn.

Regarding `Cc1cnc(-c2cc(OC(C)C(C)O)cc(C(=O)N[C@H](C)c3cnc(C(F)(F)F)nc3)c2F)s1` (single isomer, unassigned) [Compound I-4], at hP2X3 receptor, the IC50 amounted to 63 nM and the “antagonistic activity against hP2X3 receptor compared with Reference compound 1 (in words)” value was “better antagonistic activity”.
For `Cc1cnc(-c2cc(OC(C)C(C)O)cc(C(=O)N[C@H](C)c3cnc(C(F)(F)F)nc3)c2F)s1` (single isomer, unassigned) [Compound I-5] the same measures were 50 nM and “better antagonistic activity”.
Consider `Cc1cnc(-c2cc(O[C@@H]3CCOC3)c(F)c(C(=O)N[C@H](C)c3cnc(C(F)(F)F)nc3)c2)s1` [Compound I-2, 2-fluoro-5-(5-methylthiazol-2-yl)-3-(((R)-tetrahydrofuran-3-yl)oxy)-N—((R)-1-(2-(trifluoromethyl)pyrimidin-5-yl)ethyl)benzamide], for which the IC50 at hP2X3 receptor was found to be 298 nM.
On to `Cc1cnc(-c2cc(C(=O)N[C@H](C)c3cnc(C(F)(F)F)nc3)cc(O[C@@H]3CCOC3)c2F)s1` [Compound I-3, 4-fluoro-3-(5-methylthiazol-2-yl)-5-(((R)-tetrahydrofuran-3-yl)oxy)-N—((R)-1-(2-(trifluoromethyl)pyrimidin-5-yl)ethyl)benzamide], for which the IC50 on hP2X3 receptor is 168 nM.
On the same count and under the same terms, the result for `CC(O)C(C)Oc1cc(C(=O)N[C@H](C)c2cnc(C(F)(F)F)nc2)c(F)c(-c2ncc(Cl)s2)c1` (stereo partly drawn) [Compound I-7, 3-(5-chlorothiazol-2-yl)-2-fluoro-5-((cis-3-hydroxybutan-2-yl)oxy)-N—((R)-1-(2-(trifluoromethyl)pyrimidin-5-yl)ethyl)benzamide] reads 271 nM; that for `Cc1cnc(-c2cc(OC[C@@H]3COCCN3C)cc(C(=O)N[C@H](C)c3cnc(C(F)(F)F)nc3)c2F)s1` [Compound I-9, 2-fluoro-5-(((S)-4-methylmorpholin-3-yl)methoxy)-3-(5-methylthiazol-2-yl)-N—((R)-1-(2-(trifluoromethyl)pyrimidin-5-yl)ethyl)benzamide], 305 nM.
Regarding `Cc1cnc(-c2cc(OC3COC3)cc(C(=O)N[C@H](C)c3cnc(C(F)(F)F)nc3)c2F)s1` [Compound I-14, (R)-2-fluoro-3-(5-methylthiazol-2-yl)-5-(oxetane-3-yloxy)-N-(1-(2-(trifluoromethyl)pyrimidin-5-yl)ethyl)benzamide], at hP2X3 receptor, the IC50 was 99 nM and the “antagonistic activity against hP2X3 receptor compared with Reference compound 1 (in words)” value is recorded as “better antagonistic activity”.
In the case of `Cc1cnc(-c2cc(OCC3CC3)cc(C(=O)N[C@H](C)c3cnc(C(F)(F)F)nc3)c2F)s1` [Compound I-15, (R)-5-(cyclopropylmethoxy)-2-fluoro-3-(5-methylthiazol-2-yl)-N-(1-(2-(trifluoromethyl)pyrimidin-5-yl)ethyl)benzamide], the IC50 at hP2X3 receptor amounted to 1360 nM.
Same read-out and setting: the result for `Cc1cnc(-c2cc(OC3CCN(C)CC3)cc(C(=O)N[C@H](C)c3cnc(C(F)(F)F)nc3)c2F)s1` [Compound I-16, (R)-2-fluoro-5-((1-methylpiperidin-4-yl)oxy)-3-(5-methylthiazol-2-yl)-N-(1-(2-(trifluoromethyl)pyrimidin-5-yl)ethyl)benzamide] reads 433 nM.
As for `Cc1cnc(-c2cc(OC3CCNCC3)cc(C(=O)N[C@H](C)c3cnc(C(F)(F)F)nc3)c2F)s1` [Compound I-17, (R)-2-fluoro-5-((1-piperidin-4-yl)oxy)-3-(5-methylthiazol-2-yl)-N-(1-(2-(trifluoromethyl)pyrimidin-5-yl)ethyl)benzamide], the IC50 at hP2X3 receptor was found to be 388 nM.
Same read-out and setting: the result for `Cc1cnc(-c2cc(OC[C@H]3CNCCO3)cc(C(=O)N[C@H](C)c3cnc(C(F)(F)F)nc3)c2F)s1` [Compound I-18, 2-fluoro-3-(5-methylthiazol-2-yl)-5-(((R)-morpholin-2-yl)methoxy)-N—((R)-1-(2-(trifluoromethyl)pyrimidin-5-yl)ethyl)benzamide hydrochloride] reads 448 nM; that for `Cc1cnc(-c2cc(OC[C@H]3CN(C)CCO3)cc(C(=O)N[C@H](C)c3cnc(C(F)(F)F)nc3)c2F)s1` [Compound I-19, 2-fluoro-5-(((R)-4-methylmorpholin-2-yl)methoxy)-3-(5-methylthiazol-2-yl)-N—((R)-1-(2-(trifluoromethyl)pyrimidin-5-yl)ethyl)benzamide], 310 nM; that for `[2H]C([2H])([2H])N1CCO[C@@H](COc2cc(C(=O)N[C@H](C)c3cnc(C(F)(F)F)nc3)c(F)c(-c3ncc(C)s3)c2)C1` [Compound I-20, 2-fluoro-5-(((R)-4-(methyl-d3)morpholin-2-yl)methoxy)-3-(5-methylthiazol-2-yl)-N—((R)-1-(2-(trifluoromethyl)pyrimidin-5-yl)ethyl)benzamide], 373 nM.
For `Cc1cnc(-c2cc(O[C@@H](C)[C@H](C)O)cc(C(=O)N[C@H](C)c3cnc(C(F)(F)F)nc3)c2F)s1` [Compound I-28, 2-fluoro-5-(((2S, 3S)-3-hydroxybutan-2-yl)oxy)-3-(5-methylthiazol-2-yl)-N—((R)-1-(2-(trifluoromethyl)pyrimidin-5-yl)ethyl)benzamide], at hP2X3 receptor, the IC50 was found to be 63 nM and the “antagonistic activity against hP2X3 receptor compared with Reference compound 1 (in words)” value is “better antagonistic activity”. Further, the “Water/aqueous quinine solution (ratio of water intake to aqueous quinine solution intake)” value in the data set with rat taste is on record as 15.4. Also, the “pharmacokinetic properties in mouse compared with Reference compound 1 and Reference compound 2 (in words)” value in data set [1] (mouse assay, vs Reference compounds 1 and 2) is “significantly improved pharmacokinetic properties”. Besides, in data set [1] (setting [3]), the exposure AUC(0-t) is 8760 ng·h/mL, the highest level (Cmax) was 2400 ng/mL and the Tmax was found to be 0.5 h. For the same molecule, the half-life in data set [1] (mouse, plasma, po, male ICR mice, intragastric administration, 10 mg/kg, read-out: T½ (converted)) is 2.65 h. For the same molecule, in data set [2], the “Average cough times within 15 min” value was 9.1 and the “Cough inhibition rate vs. solvent” value stood at 65.8%.

Source of the values: patent US20230227445A1, “BENZAMIDE COMPOUND AND USE THEREOF” (HUMANWELL HEALTHCARE (GROUP) CO., LTD., priority 2020, published 2023).
